According to ChEMBL document CHEMBL1129774, “Antitumor agents 171. Cytotoxicities of lobatosides B, C, D, and E, cyclic bisdesmosides isolated from Actinostemma lobatum maxim” (1996):
Where “and” joins values, the source holds several entries; their conditions need not be identical. Identical values can stand only once.

Legend:
Format in all cases: functional
[1] = test system: A549; experiment: In vitro cytotoxicity against human Non-small cell lung cancer A549/ATCC cell line.
[2] = test system: HCC 2998; experiment: In vitro cytotoxicity against human colon cancer HCC2998 cell line.
[3] = test system: HL-60; experiment: In vitro cytotoxicity against human leukemia HL-60(TB) cancer cell line
[4] = test system: MDA-MB-435; experiment: In vitro cytotoxicity against human […] MDA-MB-435 cell line
[5] = test system: OVCAR-5; experiment: In vitro cytotoxicity against human ovarian cancer OVCAR-5 cell line
[6] = test system: PC-3; experiment: In vitro cytotoxicity against human prostate cancer PC-3 cell line
[7] = test system: SF-295; experiment: In vitro cytotoxicity against human CNS cancer SF-295 cell line.
[8] = test system: SK-MEL-5; experiment: In vitro cytotoxicity against human melanoma SK-MEL-5 cancer cell line.
[9] = test system: SK-MEL-28; experiment: In vitro cytotoxicity against human melanoma SK-MEL-28 cancer cell line.
[10] = test system: UO-31; experiment: In vitro cytotoxicity against human renal cancer UO-31 cell line

C[C@@H]1O[C@H]2OC3[C@@H](OC[C@H](O)[C@@H]3O)OC(=O)[C@@]34CC[C@@H]5C(=CC[C@H]6[C@@]5(C)CC[C@H]5C(C)(C)[C@@H](O[C@@H]7O[C@H](CO)[C@@H](O)[C@H](O)[C@H]7O[C@@H]7O[C@H](CO)[C@@H](O)[C@H](O)[C@H]7OC(=O)CC(C)(O)CC(=O)O[C@@H]1[C@@H](O)[C@H]2O)[C@@H](O)C[C@]65C)[C@@H]3CC(C)(C)CC4 (stereo partly specified)
GI50 [1]: 1320 nM
GI50 [2]: 1150 nM
GI50 ([2]; Homo sapiens, HCC 2998): 1320 nM
GI50 [3]: 1410 nM
GI50 [4]: 1580 nM
GI50 [5]: 1620 nM
GI50 [6]: 1380 nM
GI50 [7]: 1780 nM
GI50 [8]: 1200 nM
GI50 [9]: 1510 nM
GI50 [10]: 1230 nM

C[C@@H]1O[C@H]2O[C@H]3[C@@H](OC[C@H](O)[C@@H]3O)OC(=O)[C@@]34CC[C@@H]5C(=CC[C@H]6[C@@]5(C)CC[C@H]5C(C)(C)[C@@H](O[C@@H]7O[C@H](CO)[C@@H](O)[C@H](O)[C@H]7O[C@H]7OC[C@H](OC(=O)CC(C)(O)CC(=O)O[C@@H]1[C@@H](O)[C@H]2O)[C@H](O)[C@H]7O)[C@@H](O)C[C@]65C)[C@@H]3CC(C)(C)CC4 (stereo partly specified)
GI50 [1]: 2240 nM
GI50 [2]: 2400 nM and 8910 nM
GI50 [3]: 1780 nM
GI50 [4]: 5890 nM
GI50 [5]: 1320 nM
GI50 [6]: 2190 nM
GI50 [7]: 3390 nM
GI50 [8]: 4170 nM
GI50 [9]: 1940 nM
GI50 [10]: 6030 nM

C[C@@H]1O[C@H]2O[C@H]3[C@@H](OC[C@H](O)[C@@H]3O)OC(=O)[C@@]34CCC5C(=CC[C@@H]6[C@@]7(C)C[C@H](O)[C@H](O[C@@H]8O[C@H](CO)[C@@H](O)[C@H](O)[C@H]8O[C@@H]8O[C@H](CO)[C@H](O)[C@H](O)[C@H]8OC(=O)CC(C)(O)CC(=O)O[C@@H]1[C@@H](O[C@@H]1O[C@H](CO)[C@@H](O)[C@H](O)[C@H]1O)[C@H]2O)C(C)(C)[C@@H]7CC[C@@]56C)[C@@H]3CC(C)(C)CC4 (stereo partly specified)
GI50 [1]: 140 nM
GI50 [2]: 1410 nM and 360 nM
GI50 [3]: 1450 nM
GI50 [4]: 1450 nM
GI50 [5]: 2000 nM
GI50 [6]: 1950 nM
GI50 [7]: 1510 nM
GI50 [8]: 140 nM
GI50 [9]: 1290 nM
GI50 [10]: 1620 nM

C[C@@H]1O[C@H]2O[C@H]3[C@@H](OC[C@H](O)[C@@H]3O)OC(=O)[C@@]34CCC5C(=CC[C@@H]6[C@@]7(C)C[C@H](O)[C@H](O[C@@H]8O[C@H](CO)[C@@H](O)[C@H](O)[C@H]8O[C@H]8OC[C@H](OC(=O)CC(C)(O)CC(=O)O[C@@H]1[C@@H](O[C@@H]1O[C@H](CO)[C@@H](O)[C@H](O)[C@H]1O)[C@H]2O)C(O)[C@H]8O)C(C)(C)[C@@H]7CC[C@@]56C)[C@@H]3CC(C)(C)CC4 (stereo partly specified)
GI50 [1]: 3890 nM
GI50 [2]: 2450 nM and 9330 nM
GI50 [3]: 1820 nM
GI50 [4]: 2450 nM
GI50 [5]: 8910 nM
GI50 [6]: 7940 nM
GI50 [7]: 4070 nM
GI50 [8]: 11400 nM
GI50 [9]: 1940 nM
GI50 [10]: 4470 nM
